Measured values from US20210267948A1, “TREATMENT OF CANCER” (CITY OF HOPE, priority 2017, published 2021).

Columns and labels:
PARP1 = PARP1 protein expression by Western blot; type: cell-based, human; conditions: HCC1937 cells irrespective of BRCA1 status, 4 h
Protocol: FIGS. 3A-3B. […] (FIG. 3A): the effect of COH29 on PARP1 activity in isogenic pairs of breast (HCC1937) and ovarian (UWB1.289) cancer cell lines expressing mutant or wt BRCA1 (wt=+BRCA1 in each case) was assessed in duplicate using procedures described in Materials & Methods; FIG. 3B: the effect of COH29 on PARP1 protein expression in the isogenic HCC1937/HCC1937+BRCA1 cell lines was assessed by Western blot analysis using anti-human PARP1 antibody as the primary antibody. Loading control is β-actin.
For subcellular fractionation, cells were trypsinized and washed with cold PBS solution twice. […] Following centrifugation at 1,000 g for 5 min, the supernatant was collected (i.e., cytoplasmic fraction) and pellets were washed with the same buffer twice. The washed samples were extracted for 40 min on ice with fractionation buffer containing 0.5% NP-40 for nuclear fraction. All the samples were sonicated and clarified by centrifugation at 16,000 g for 15 min. Protein concentrations of all fractions were determined with Bio-Rad Protein Assay (Bio-Rad Laboratories, Hercules, Calif.). Immunoblotting was performed as described previously (21,22). Briefly, equal amounts of boiled protein samples were subjected to SDS-polyacrylamide gel electrophoresis (PAGE) and transferred onto nitrocellulose membranes (Bio-Rad Laboratories). Membranes were blocked for 1 hour in 3% BSA in Tris buffered saline containing 0.05% Tween 20 (TBST) and incubated for 1 hour with primary antibody (1:500 or 1:1000) diluted in TBST containing 1% BSA. After two washes with TBST, membranes were incubated for 1 hour with horseradish peroxidase-conjugated secondary Abs (1:3000 dilution) at room temperature. The immunoblots were visualized on film with the West-Q chemi-luminescence kit (GenDEPOT, Barker, Tex.).

KB-Gem = assay: Cytotoxicity assay, KB-Gem; type: cell-based, human; conditions: gemcitabine-resistant, read-out: IC50, mean ± SEM
Protocol: (§1) The MTT cytotoxicity assay was performed by incubating with MTT and monitoring the MTT formazan formed by viable cells with a microplate reader at a wavelength of 560 nm; the survival ratio was determined using the formula: (Atest−Ablank)/(Acontrol−Ablank)×100%. The cytotoxicity was determined in 96-well plates using the semiautomatic fluorescence-based Digital Imaging Microscopy System (DIMSCAN). DIMSCAN uses digital imaging microscopy to quantify viable cells, which selectively accumulate FDA (fluorescein diacetate; Alfa Aesar, Ward Hill, Mass.). DIMSCAN is capable of measuring cytotoxicity over a 4 log dynamic range by quantifying total fluorescence per well (which is proportional to the number of viable cells) after elimination of the background fluorescence by digital thresholding and eosin Y (Mallinckrodt Baker, Center Valley, Pa.) quenching. Cells were seeded into 96-well plates in 100 μL of complete medium at 2,000 to 5,000 cells per well, depending on cell line growth rate. After overnight incubation, test compound was added to each well at various concentrations in 50 μL of culture medium. […] Total fluorescence per well was then measured using DIMSCAN, and the results were expressed as the ratio of the fluorescence in treated wells to the fluorescence in untreated wells (survival fraction).

HCC1937 = assay: Cytotoxicity assay, HCC1937; type: cell-based, human; conditions: HCC1937, BRCA1 mutant, triple negative, 72 h
Protocol: All cell lines were acquired from the American Type Culture Collection (Manassas, Va., USA). Cells were maintained in RPMI 1640 medium (Mediatech) with 10% fetal bovine serum, 2 mM glutamine, and 100 U of penicillin and 100 μg of streptomycin per ml of medium (Sigma) at 37° C. in 5% CO2. To isolate HCC1937+BRCA1 cells, parental HCC1937 cells were transfected with pcDNA3.1 plasmid expressing full-length BRCA1 cDNA. Stable transfectant clones were selected and used for drug sensitivity assays. […] The restoration of BRCA1 expression in the puromycin-resistant cDNA/transfectant cells was evaluated by Western blot analysis.
The MTT cytotoxicity assay was performed by incubating with MTT and monitoring the MTT formazan formed by viable cells with a microplate reader at a wavelength of 560 nm; the survival ratio was determined using the formula: (Atest−Ablank)/(Acontrol−Ablank)×100%. The cytotoxicity was determined in 96-well plates using the semiautomatic fluorescence-based Digital Imaging Microscopy System (DIMSCAN). DIMSCAN uses digital imaging microscopy to quantify viable cells, which selectively accumulate FDA (fluorescein diacetate; Alfa Aesar, Ward Hill, Mass.). […] Total fluorescence per well was then measured using DIMSCAN, and the results were expressed as the ratio of the fluorescence in treated wells to the fluorescence in untreated wells (survival fraction).

TOV112D = assay: Cytotoxicity assay, TOV112D; type: cell-based, human; conditions: read-out: IC50, mean ± SEM
Protocol: as §1

OV90 = assay: MTT cytotoxicity assay, OV90; type: cell-based, human; conditions: OV90, wild-type BRCA1, 72 h; read-out: IC50, mean ± SEM
Protocol: as §1

KB-7D = assay: Cytotoxicity assay, KB-7D; type: cell-based, human; conditions: cisplatin-resistant, read-out: IC50, mean ± SEM
Protocol: as §1

HCC1937+BRCA1 = assay: Cytotoxicity assay, HCC1937+BRCA1; type: cell-based, human; conditions: HCC1937 + BRCA1, triple negative, 72 h
Protocol: All cell lines were acquired from the American Type Culture Collection (Manassas, Va., USA). Cells were maintained in RPMI 1640 medium (Mediatech) with 10% fetal bovine serum, 2 mM glutamine, and 100 U of penicillin and 100 μg of streptomycin per ml of medium (Sigma) at 37° C. in 5% CO2. To isolate HCC1937+BRCA1 cells, parental HCC1937 cells were transfected with pcDNA3.1 plasmid expressing full-length BRCA1 cDNA. Stable transfectant clones were selected and used for drug sensitivity assays. For stable transfection, cells at 30-40% confluence were incubated overnight with […] of plasmid DNA, using FUGENE® 6 transfectin reagent (Roche Molecular Biochemical, Monza, Italy) according to the manufacturer's instructions. Cells were then selected in puromycin (1 μg/ml) (Invitrogen Life Technologies, La Jolla, Calif., USA). After 20 to 30 days, viable puromycin-resistant colonies from HCC1937 transfections were expanded and screened. The clones that stably expressed puromycin and retained growth potential were assayed for BRCA1 expression by Western blot analysis. The restoration of BRCA1 expression in the puromycin-resistant cDNA/transfectant cells was evaluated by Western blot analysis.
The MTT cytotoxicity assay was performed by incubating with MTT and monitoring the MTT formazan formed by viable cells with a microplate reader at a wavelength of 560 nm; the survival ratio was determined using the formula: (Atest−Ablank)/(Acontrol−Ablank)×100%. The cytotoxicity was determined in 96-well plates using the semiautomatic fluorescence-based Digital Imaging Microscopy System (DIMSCAN). DIMSCAN uses digital imaging microscopy to quantify viable cells, which selectively accumulate FDA (fluorescein diacetate; Alfa Aesar, Ward Hill, Mass.). DIMSCAN is capable of measuring cytotoxicity over a 4 log dynamic range by quantifying total fluorescence per well (which is proportional to the number of viable cells) after elimination of the background fluorescence by digital thresholding and eosin Y (Mallinckrodt Baker, Center Valley, Pa.) quenching. […]

A2780-DDDP = assay: Cytotoxicity assay, A2780-DDDP; type: cell-based, human; conditions: cisplatin-resistant, read-out: IC50, mean ± SEM
Protocol: as §1

SKBR3 = assay: Cytotoxicity assay, SKBR3; type: cell-based, human; conditions: SKBR3, ER− PR(−) HER2+
Protocol: as §1

UWB1.289+BRCA1 = assay: Cytotoxicity assay, UWB1.289+BRCA1; type: cell-based, human; conditions: UWB1.289 + BRCA1 (WT), 72 h; read-out: IC50, mean ± SEM
Protocol: as §1

OVCAR-3 = assay: Cytotoxicity assay, OVCAR-3; type: cell-based, human; conditions: read-out: IC50, mean ± SEM
Protocol: as §1

UWB1.289 = assay: MTT cytotoxicity assay, UWB1.289; type: cell-based, human; conditions: UWB1.289, BRCA1-defective, 72 h; read-out: IC50, mean ± SEM
Protocol: as §1

OVCAR-4 = assay: Cytotoxicity assay, OVCAR-4; type: cell-based, human; conditions: read-out: IC50, mean ± SEM
Protocol: as §1

[1] = tested on: wild-type zebrafish embryos; assay: Zebrafish genotoxicity assay; type: in vivo, Danio rerio; conditions: HU 0-50 mM
Protocol: The PARP1 activity was determined using the PARP1 Chemiluminescent Assay Kit (BPS Bioscience, San Diego) according to the manufacturer's protocol. Briefly, the ribosylation reaction was carried out with activated DNA in PARP assay buffer using test inhibitor, positive control, substrate control and blank reactions, for 1 hour at 25° C. Detection was by streptavidin-HRP with chemiluminescent substrate A and B read in a luminometer. NZebrafish (Danio rerio) were obtained from zebrafish Core facility of Taipei Medical University and maintained at 28° C. on a 14 h light/10 h dark cycle. Embryos were incubated at 28° C. and different developmental stages were determined as described (25). Wild-type embryos were treated with different concentrations of HU (0, 5, 10, 20, 50 mM) or COH29 (0, 10, 20, 50, 100 μM) at 20 hpf to evaluate the mutagenic effect. Fifteen embryos were treated per well condition. […] Embryos were observed using an Olympus IX70-FLA inverted fluorescence microscope. Images were taken using SPOT digital camera system (Diagnostic Instruments, Sterling Heights, Mich., USA) and assembled with Image) software (26).
To assess the genotoxicity of COH29, wild-type zebrafish embryos were treated from 1 to 7 dpf (day post-fertilization) with a range of doses of COH29 (0-100 μM) and compared to embryos similarly treated with HU (0-50 mM) which is known to cause developmental defects.

C[C@]1(c2nc3c(C(N)=O)cccc3[nH]2)CCCN1 [ABT-888, reference compound]
PARP1 protein level (PARP1): significant reduction

N.N.[Cl][Pt][Cl] [Cisplatin]
IC50 (KB-Gem): 0.38 ± 0.03 µM
IC50 (HCC1937): 2.46 ± 0.11 µM
IC50 (TOV112D): 1.32 ± 0.2 µM
IC50 (OV90): 1.57 ± 0.29 µM
IC50 (KB-7D): 7.5 ± 0.3 µM
IC50 (HCC1937+BRCA1): 2.93 ± 0.55 µM
IC50 (A2780-DDDP): 5.02 ± 1.18 µM
IC50 (SKBR3): 0.99 ± 0.24 µM
IC50 (UWB1.289+BRCA1): 7.4 ± 2.02 µM
IC50 (OVCAR-3): 1.64 ± 0.04 µM
IC50 (UWB1.289): 1.43 ± 0.87 µM
IC50 (OVCAR-4): 2.25 ± 0.25 µM

NC(=O)NO [HU, hydroxyurea, reference compound]
number of mutant embryos [1]: dose-dependent increase
developmental defects ([1]; embryos treated 1 to 7 dpf, COH29 0-100 μM): caused defects in eyes and heart by 4 dpf
